# From patent US20050090529A1, “3,5 Disubstituted indazole compounds with nitrogen-bearing 5-membered heterocycles, pharmaceutical compositions, and methods for mediating or inhibiting cell proliferation” (PFIZER INC, priority 2003, published 2005)
# Target: T1, CDK2/Cyclin A (Homo sapiens, UniProt P24941)
# T1 construct: made in house; host or cells: CDK2: insect cells (baculovirus); cyclin A: E. coli
# Test: Inhibition of CDK2/Cyclin A retinoblastoma kinase activity (apparent Ki)
# Format: biochemical
# Conditions: read-out: CDK2 Ki
# Procedure: Cyclin-dependent kinase activity was measured by quantifying the enzyme-catalyzed, time-dependent incorporation of radioactive phosphate from [^32P]ATP or [^33P]ATP into a protein substrate. […] Reactions were initiated with enzyme, incubated at 30° C., and terminated after 20 minutes by the addition of ethylenediaminetetraacetic acid (EDTA) to 250 mM. […] Radioactivity was quantified by exposing the dried membranes to a phosphorimager.
# Apparent Ki values were measured by assaying enzyme activity in the presence of different inhibitor compound concentrations and subtracting the background radioactivity measured in the absence of enzyme. Inhibition data were fit to an equation for competitive inhibition using Kaleidagraph (Synergy Software), or were fit to an equation for competitive tight-binding inhibition using the software KineTic (BioKin, Ltd.).
# A complex of CDK2 and proteolyzed cyclin A was prepared and purified by gel filtration. […] Ki values were measured as described above.
row,Structure (SMILES),Ki [nM]
1,"CCNCc1cncc(-c2ccc3[nH]nc(-c4ncc(C(=O)N5CCC(Oc6ccccc6)CC5)[nH]4)c3c2)c1C [Example 70, N-{[4-methyl-5-(3-{5-[(4-phenoxypiperidin-1-yl)carbonyl]-1H-imidazol-2-yl}-1H-indazol-5-yl)pyridin-3-yl]methyl}ethanamine]",< 50
2,"CCNCc1cncc(-c2ccc3[nH]nc(-c4ncc(C(=O)N5CCN(CCOC)CC5)[nH]4)c3c2)c1C [Example 78, N-({5-[3-(5-{[4-(2-methoxyethyl)piperazin-1-yl]carbonyl}-1H-imidazol-2-yl)-1H-indazol-5-yl]-4-methylpyridin-3-yl}methyl)ethanamine]",< 50
3,"CCNCc1cncc(-c2ccc3[nH]nc(-c4ncc(C(=O)N5CCCC(Cc6ncccn6)CC5)[nH]4)c3c2)c1C (stereo not drawn) [Example 79, N-({4-methyl-5-[3-(5-{[4-(pyrimidin-2-ylmethyl)azepan-1-yl]carbonyl}-1H-imidazol-2-yl)-1H-indazol-5-yl]pyridin-3-yl}methyl)ethanamine]",< 50
4,"CCNCc1cncc(-c2ccc3[nH]nc(-c4ncc(C(=O)NCCC5=CCCCC5)[nH]4)c3c2)c1C [Example 80, N-(2-cyclohex-1-en-1-ylethyl)-2-(5-{5-[(ethylamino)methyl]-4-methylpyridin-3-yl}-1H-indazol-3-yl)-1H-imidazole-5-carboxamide]",< 50
5,"CCNCc1cncc(-c2ccc3[nH]nc(-c4ncc(C(=O)N(CCN(C)C)Cc5ccccc5)[nH]4)c3c2)c1C [Example 81, N-benzyl-N-[2-(dimethylamino)ethyl]-2-(5-{5-[(ethylamino)methyl]-4-methylpyridin-3-yl}-1H-indazol-3-yl)-1H-imidazole-5-carboxamide]",< 50
6,"CCNCc1cncc(-c2ccc3[nH]nc(-c4ncc(C(=O)N(C)C5CCN(Cc6ccccc6)C5)[nH]4)c3c2)c1C (stereo not drawn) [Example 82, N-(1-benzylpyrrolidin-3-yl)-2-(5-{5-[(ethylamino)methyl]-4-methylpyridin-3-yl}-1H-indazol-3yl)-N-methyl-1H-imidazole-5-carboxamide]",< 50
7,"CCNCc1cncc(-c2ccc3[nH]nc(-c4ncc(C(=O)N(C)C5CCN(C)C5)[nH]4)c3c2)c1C (stereo not drawn) [Example 84, 2-(5-{5-[(ethylamino)methyl]-4-methylpyridin-3-yl}-1H-indazol-3-yl)-N-methyl-N-(1-methylpyrrolidin-3-yl)-1H-imidazole-5-carboxamide]",50 to 200
8,"CCNCc1cncc(-c2ccc3[nH]nc(-c4ocnc4C)c3c2)c1C [Example 88, N-({4-methyl-5-[3-(4-methyl-1,3-oxazol-5-yl)-1H-indazol-5-yl]pyridin-3-yl}methyl)ethanamine]",> 200
9,"CCNCc1cncc(-c2ccc3[nH]nc(-c4cc(C)n[nH]4)c3c2)c1C [Example 89, Ethyl-{4-methyl-5-[3-(5-methyl-2H-pyrazol-3-yl)-1H-indazol-5-yl]-pyridin-3-ylmethyl}-amine]",< 50
10,"CCNCc1cncc(-c2ccc3[nH]nc(-c4nnn[nH]4)c3c2)c1C [Example 91, Ethyl-{4-methyl-5-[3-(1H-tetrazol-5-yl)-1H-indazol-5-yl]-pyridin-3-ylmethyl}-amine]",> 200
11,"CCNCc1cncc(-c2ccc3[nH]nc(-c4nc(C)c[nH]4)c3c2)c1C [Example 92, N-({4-methyl-5-[3-(4-methyl-1H-imidazol-2-yl)-1H-indazol-5-yl]pyridin-3-yl}methyl)ethanamine]",< 50
12,"CNCc1cncc(-c2ccc3[nH]nc(-c4nc(C)c[nH]4)c3c2)c1C [Example 93, N-methyl-1-{4-methyl-5-[3-(4-methyl-1H-imidazol-2-yl)-1H-indazol-5-yl]pyridin-3-yl}methanamine]",< 50
